Test results from US20020002171A1, “Materials and methods for killing nematodes and nematode eggs” (priority 2000, published 2002).

The compounds below were run on Caenorhabditis elegans (assay: C. elegans L1 nematicidal dose response in 96-well plates, 5 day visual score (Example 2; same procedure for Example 7, Table 3)). Conditions: 0.3 μM, C. elegans L1, scored day 5.
Format: in vivo
Parameters: key to 5 Day Visual Score V1 / 5 Day Visual Score V2 / 5 Day Visual Score V3 / 5 Day Visual Score V4 / 5 Day Visual Score V6 / 5 Day Visual Score V5 / Initial HTS Run Visual Score / Follow-up HTS Run Visual Score: Dead: only stiff L1s (no movement); Dead (L4): worms are dead, but at a later larval stage; majority of worms are L1 (based on size) worms move when plate is tapped; majority of worms are L2 (based on size); majority of worms are L3 (based on size); majority of worms are L4 (based on size); AD: majority of worms are adult; #AD: 5 adult worms or less; B!: sterile (0-25 progeny); B: low broodsize (25-100 progeny); ˜B: moderate broodsize (100-250 progeny); <: reduced broodsize (250-500 progeny); OK: no effect (˜1000+ progeny)
Summary of the method: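 L1 larvae, 20 per well in NGM with 1% E. coli HB101 and antibiotic/antimycotic, exposed to six 3-fold dilutions from 70 μM down to 0.3 μM (1.4% DMSO at top). Held at 20° C; viability scored visually under 100× dissecting microscope on day 5.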

| Structure (SMILES) | 5 Day Visual Score V6 |
| --- | --- |
| CCCCOc1ccc(C(=O)N2CC(OCCCc3ccccc3)CC2C(=O)NCc2ccccc2OC)cc1 (centres unmarked) [AKC 126] | #AD/˜B |
| CCOc1cccc(C2ON=C(c3ccccc3OCC)C2C(=O)NCCc2ccc(OC)c(OCC)c2)c1 (centres unmarked) [AKC 124] | L4/#AD/B |
| Cc1ccc(-c2noc(C3CCC(CNC(=O)Nc4ccc(OC(F)(F)F)cc4)CC3)n2)cc1C (centres unmarked) [AKC 112] | OK (no effect (˜1000+ progeny)) |

Same assay, conditions: 0.9 μM, C. elegans L1, scored day 5

| Structure (SMILES) | 5 Day Visual Score V5 |
| --- | --- |
| CCCCOc1ccc(C(=O)N2CC(OCCCc3ccccc3)CC2C(=O)NCc2ccccc2OC)cc1 (centres unmarked) [AKC 126] | ˜B (moderate broodsize (100-250 progeny)) |
| CCOc1cccc(C2ON=C(c3ccccc3OCC)C2C(=O)NCCc2ccc(OC)c(OCC)c2)c1 (centres unmarked) [AKC 124] | L4/#AD/B |
| Cc1ccc(-c2noc(C3CCC(CNC(=O)Nc4ccc(OC(F)(F)F)cc4)CC3)n2)cc1C (centres unmarked) [AKC 112] | #AD/˜B |

Same assay, conditions: 2.6 μM, C. elegans L1, scored day 5

| Structure (SMILES) | 5 Day Visual Score V4 |
| --- | --- |
| O=C(Nc1ccc(Br)cc1)N1CCC(c2nc(-c3ccccc3)no2)CC1 [AKC 108] | L1 |
| CCCCOc1ccc(C(=O)N2CC(OCCCc3ccccc3)CC2C(=O)NCc2ccccc2OC)cc1 (centres unmarked) [AKC 126] | #AD/˜B |
| CCOc1cccc(C2ON=C(c3ccccc3OCC)C2C(=O)NCCc2ccc(OC)c(OCC)c2)c1 (centres unmarked) [AKC 124] | L4/#AD/B |

Same assay, conditions: 7.8 μM, C. elegans L1, scored day 5

| Structure (SMILES) | 5 Day Visual Score V3 |
| --- | --- |
| O=C(Nc1ccc(Br)cc1)N1CCC(c2nc(-c3ccccc3)no2)CC1 [AKC 108] | L1 |

Same assay, conditions: 23.3 μM, C. elegans L1, scored day 5

| Structure (SMILES) | 5 Day Visual Score V2 |
| --- | --- |
| O=C(Nc1ccc(Br)cc1)N1CCC(c2nc(-c3ccccc3)no2)CC1 [AKC 108] | Dead |

Same assay, conditions: 70 μM, C. elegans L1, scored day 5

| Structure (SMILES) | 5 Day Visual Score V1 |
| --- | --- |
| O=C(Nc1ccc(Br)cc1)N1CCC(c2nc(-c3ccccc3)no2)CC1 [AKC 108] | Dead |

Same assay, conditions: Follow-up HTS run

| Structure (SMILES) | Follow-up HTS Run % Run [%] | Follow-up HTS Run mOD [mOD] | Follow-up HTS Run Visual Score |
| --- | --- | --- | --- |
| CN(Cc1ccccc1)c1nc(NCc2ccc(C(F)(F)F)cc2)ns1 [compound 315] | 118 | 190 |  |
| CCCCCCCCCCNc1nsc(N2CCN(c3c(C)cccc3C)CC2)n1 [compound 275] | 105 | 169 | Dead |
| CCN(Cc1ccccc1)c1nc(NCc2ccccc2)ns1 [compound 326] | 110 | 177 |  |
| COCCN(CCOC)c1nc(NCc2ccc(C(F)(F)F)cc2)ns1 [compound 257] | 104 | 168 | L4/AD/B! |
| CCCCCCCCCCNc1nsc(N2CCN(c3ncccn3)CC2)n1 [compound 274] | 116 | 187 | Dead |

Same assay, conditions: Initial HTS run

| Structure (SMILES) | Initial HTS Run % Run [%] | Initial HTS Run mOD [mOD] | Initial HTS Run Visual Score |
| --- | --- | --- | --- |
| CN(Cc1ccccc1)c1nc(NCc2ccc(C(F)(F)F)cc2)ns1 [compound 315] | 112 | 123 |  |
| CCCCCCCCCCNc1nsc(N2CCN(c3c(C)cccc3C)CC2)n1 [compound 275] | 95 | 105 | Dead |
| CCN(Cc1ccccc1)c1nc(NCc2ccccc2)ns1 [compound 326] | 95 | 105 |  |
| COCCN(CCOC)c1nc(NCc2ccc(C(F)(F)F)cc2)ns1 [compound 257] | 91 | 100 | L4/AD/B! |
| CCCCCCCCCCNc1nsc(N2CCN(c3ncccn3)CC2)n1 [compound 274] | 111 | 122 | Dead |

Same assay, conditions: dose response, dilution V1, 5 day

| Structure (SMILES) | 5 Day Visual Score V1 |
| --- | --- |
| CN(Cc1ccccc1)c1nc(NCc2ccc(C(F)(F)F)cc2)ns1 [compound 315] | L1 |

Same assay, conditions: dose response, dilution V1, day 5

| Structure (SMILES) | 5 Day Visual Score V1 |
| --- | --- |
| CCCCCCCCCCNc1nsc(N2CCN(c3c(C)cccc3C)CC2)n1 [compound 275] | Dead |
| COCCN(CCOC)c1nc(NCc2ccc(C(F)(F)F)cc2)ns1 [compound 257] | L1 |
| CCCCCCCCCCNc1nsc(N2CCN(c3ncccn3)CC2)n1 [compound 274] | Dead |

Same assay, conditions: dose response, dilution V2, day 5

| Structure (SMILES) | 5 Day Visual Score V2 |
| --- | --- |
| CCCCCCCCCCNc1nsc(N2CCN(c3c(C)cccc3C)CC2)n1 [compound 275] | Dead |
| COCCN(CCOC)c1nc(NCc2ccc(C(F)(F)F)cc2)ns1 [compound 257] | ˜B (moderate broodsize (100-250 progeny)) |
| CCCCCCCCCCNc1nsc(N2CCN(c3ncccn3)CC2)n1 [compound 274] | Dead |

Same assay, conditions: dose response, dilution V3, day 5

| Structure (SMILES) | 5 Day Visual Score V3 |
| --- | --- |
| CCCCCCCCCCNc1nsc(N2CCN(c3c(C)cccc3C)CC2)n1 [compound 275] | OK (no effect (˜1000+ progeny)) |
| COCCN(CCOC)c1nc(NCc2ccc(C(F)(F)F)cc2)ns1 [compound 257] | OK (no effect (˜1000+ progeny)) |

Same assay, conditions: dose response, dilution V4, 5 day

| Structure (SMILES) | 5 Day Visual Score V4 |
| --- | --- |
| CN(Cc1ccccc1)c1nc(NCc2ccc(C(F)(F)F)cc2)ns1 [compound 315] | ˜B (moderate broodsize (100-250 progeny)) |
| CCN(Cc1ccccc1)c1nc(NCc2ccccc2)ns1 [compound 326] | OK (no effect (˜1000+ progeny)) |

Same assay, conditions: dose response, dilution V4, day 5

| Structure (SMILES) | 5 Day Visual Score V4 |
| --- | --- |
| CCCCCCCCCCNc1nsc(N2CCN(c3c(C)cccc3C)CC2)n1 [compound 275] | OK (no effect (˜1000+ progeny)) |
| COCCN(CCOC)c1nc(NCc2ccc(C(F)(F)F)cc2)ns1 [compound 257] | OK (no effect (˜1000+ progeny)) |
| CCCCCCCCCCNc1nsc(N2CCN(c3ncccn3)CC2)n1 [compound 274] | B (low broodsize (25-100 progeny)) |

Same assay, conditions: dose response, dilution V5, 5 day

| Structure (SMILES) | 5 Day Visual Score V5 |
| --- | --- |
| CN(Cc1ccccc1)c1nc(NCc2ccc(C(F)(F)F)cc2)ns1 [compound 315] | OK (no effect (˜1000+ progeny)) |
| CCN(Cc1ccccc1)c1nc(NCc2ccccc2)ns1 [compound 326] | OK (no effect (˜1000+ progeny)) |

Same assay, conditions: dose response, dilution V5, day 5

| Structure (SMILES) | 5 Day Visual Score V5 |
| --- | --- |
| CCCCCCCCCCNc1nsc(N2CCN(c3c(C)cccc3C)CC2)n1 [compound 275] | OK (no effect (˜1000+ progeny)) |
| COCCN(CCOC)c1nc(NCc2ccc(C(F)(F)F)cc2)ns1 [compound 257] | OK (no effect (˜1000+ progeny)) |
| CCCCCCCCCCNc1nsc(N2CCN(c3ncccn3)CC2)n1 [compound 274] | OK (no effect (˜1000+ progeny)) |

Same assay, conditions: dose response, dilution V6, 5 day

| Structure (SMILES) | 5 Day Visual Score V6 |
| --- | --- |
| CN(Cc1ccccc1)c1nc(NCc2ccc(C(F)(F)F)cc2)ns1 [compound 315] | < (reduced broodsize (250-500 progeny)) |
| CCN(Cc1ccccc1)c1nc(NCc2ccccc2)ns1 [compound 326] | OK (no effect (˜1000+ progeny)) |

Same assay, conditions: dose response, dilution V6, day 5

| Structure (SMILES) | 5 Day Visual Score V6 |
| --- | --- |
| CCCCCCCCCCNc1nsc(N2CCN(c3c(C)cccc3C)CC2)n1 [compound 275] | OK (no effect (˜1000+ progeny)) |
| COCCN(CCOC)c1nc(NCc2ccc(C(F)(F)F)cc2)ns1 [compound 257] | OK (no effect (˜1000+ progeny)) |
| CCCCCCCCCCNc1nsc(N2CCN(c3ncccn3)CC2)n1 [compound 274] | OK (no effect (˜1000+ progeny)) |
